In patent US10259808B2 (Genentech, Inc., priority 2015, dated 2019):

Molecular target: T1, RORc ligand binding domain (Homo sapiens, UniProt P51449)
T1 sequence (P51449 269-508 limits assumed): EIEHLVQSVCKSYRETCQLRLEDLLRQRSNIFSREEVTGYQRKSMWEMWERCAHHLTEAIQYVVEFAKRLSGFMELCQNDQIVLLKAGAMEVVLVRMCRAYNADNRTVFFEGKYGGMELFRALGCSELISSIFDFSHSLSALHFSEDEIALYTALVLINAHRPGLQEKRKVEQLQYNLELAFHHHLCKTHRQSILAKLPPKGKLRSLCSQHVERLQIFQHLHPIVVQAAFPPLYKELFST
Experiment: In vitro RORc ligand binding assay (25-[3H]hydroxycholesterol displacement)

Row | IC50 | SMILES
1 | 50.7 nM | C[C@H]1CC[C@H](c2ccccc2)S(=O)(=O)N1Cc1cc(F)c(C2(NC(=O)c3c[nH]cn3)COC2)cc1F (stereo in doubt) [Example 134, N-[3-[2,5-difluoro-4-[[(3S,6R)-3-methyl-1,1-dioxo-6-phenyl-thiazinan-2-yl]methyl]phenyl]oxetan-3-yl]-1H-imidazole-4-carboxamide]
2 | 4 nM | CO[C@]1(C)C[C@](c2n[nH]c(=O)o2)(c2cc(F)c(CN3[C@@H](C)CC[C@H](c4ccccc4)S3(=O)=O)cc2F)C1 [Example 156, trans 5-[1-[2,5-difluoro-4-[[(3S,6R)-3-methyl-1,1-dioxo-6-phenyl-thiazinan-2-yl]methyl]phenyl]-3-methoxy-3-methyl-cyclobutyl]-3H-1,3,4-oxadiazol-2-one]
3 | 58.7 nM | C[C@H]1CC[C@H](c2ccccc2)S(=O)(=O)N1Cc1cc(F)c(C2(N3C[C@@H](CO)OC3=O)CCOCC2)cc1F [Example 99, (5S)-3-[4-[2,5-difluoro-4-[[(3S,6R)-3-methyl-1,1-dioxo-6-phenyl-thiazinan-2-yl]methyl]phenyl]tetrahydropyran-4-yl]-5-(hydroxymethyl)oxazolidin-2-one]
4 | 9.4 nM | CNC(=O)c1nc(CNC(=O)C2(c3ccc(CN4[C@@H](C)CC[C@H](c5ccccc5)S4(=O)=O)c(F)c3)CCOCC2)no1 [Example 15, 3-[[[4-[3-fluoro-4-[[(3S,6R)-3-methyl-1,1-dioxo-6-phenyl-thiazinan-2-yl]methyl]phenyl]tetrahydropyran-4-carbonyl]amino]methyl]-N-methyl-1,2,4-oxadiazole-5-carboxamide]
5 | 32.5 nM | C[C@H]1CC[C@H](c2ccccc2)S(=O)(=O)N1Cc1ccc(C2(C(=O)NCc3cn[nH]c3)CCOCC2)cc1F [Example 17, 4-[3-fluoro-4-[[(3S,6R)-3-methyl-1,1-dioxo-6-phenyl-thiazinan-2-yl]methyl]phenyl]-N-(1H-pyrazol-4-ylmethyl)tetrahydropyran-4-carboxamide]
6 | 114 nM | Cc1nnc(C2(c3ccc(CN4[C@@H](C)CC[C@H](c5ccccc5)S4(=O)=O)c(F)c3)CCOCC2)[nH]1 [Example 47, (3S,6R)-2-[[2-fluoro-4-[4-(5-methyl-4H-1,2,4-triazol-3-yl)tetrahydropyran-4-yl]phenyl]methyl]-3-methyl-6-phenyl-thiazinane 1,1-dioxide]
7 | 6.7 nM | C[C@H]1CC[C@H](c2ccccc2)S(=O)(=O)N1Cc1cc(F)c([C@]2(c3c[nH]c(=O)o3)C[C@@](O)(C3CC3)C2)cc1F [Example 165, 5-[3-cyclopropyl-1-[2,5-difluoro-4-[[(3S,6R)-3-methyl-1,1-dioxo-6-phenyl-thiazinan-2-yl]methyl]phenyl]-3-hydroxy-cyclobutyl]-3H-oxazol-2-one]
8 | 13.6 nM | Cc1[nH]c(=O)oc1[C@]1(c2cc(F)c(CN3[C@@H](C)CC[C@H](c4ccccc4)S3(=O)=O)cc2F)C[C@@](C)(O)C1 [Example 160, 5-[1-[2,5-difluoro-4-[[(3S,6R)-3-methyl-1,1-dioxo-6-phenyl-thiazinan-2-yl]methyl]phenyl]-3-hydroxy-3-methyl-cyclobutyl]-4-methyl-3H-oxazol-2-one]
9 | 37.9 nM | C[C@H]1CC[C@H](c2ccccc2)S(=O)(=O)N1Cc1cc(F)c([C@]2(c3nnc[nH]3)C[C@H](O)C2)cc1F [Example 116, 3-[2,5-difluoro-4-[[(3S,6R)-3-methyl-1,1-dioxo-6-phenyl-thiazinan-2-yl]methyl]phenyl]-3-(4H-1,2,4-triazol-3-yl)cyclobutanol]
10 | 4.8 nM | C[C@H]1CC[C@H](c2ccccc2)S(=O)(=O)N1Cc1cc(F)c(C2(NC(=O)c3cocn3)CCOCC2)cc1F [Example 80, N-[4-[2,5-difluoro-4-[[(3S,6R)-3-methyl-1,1-dioxo-6-phenyl-thiazinan-2-yl]methyl]phenyl]tetrahydropyran-4-yl]oxazole-4-carboxamide]
11 | 4.6 nM | COC1(OC)CC(c2nnc[nH]2)(c2cc(F)c(CN3[C@@H](C)CC[C@H](c4ccccc4)S3(=O)=O)cc2F)C1 [Example 112, (3S,6R)-2-[[4-[3,3-dimethoxy-1-(4H-1,2,4-triazol-3-yl)cyclobutyl]-2,5-difluoro-phenyl]methyl]-3-methyl-6-phenyl-thiazinane 1,1-dioxide]
12 | 39.8 nM | C[C@H]1CC[C@H](c2ccccc2)S(=O)(=O)N1Cc1cc(F)c([C@]2(c3nn(C)c(=O)[nH]3)C[C@@](C)(O)C2)cc1F (racemic) [Example 168, 5-[1-[2,5-difluoro-4-[[rac-(3S,6R)-3-methyl-1,1-dioxo-6-phenyl-thiazinan-2-yl]methyl]phenyl]-3-hydroxy-3-methyl-cyclobutyl]-2-methyl-4H-1,2,4-triazol-3-one]
13 | 22.4 nM | C[C@H]1CC[C@H](c2ccccc2)S(=O)(=O)N1Cc1cc(F)c(C2(NC(=O)c3ccon3)COC2)cc1F [Example 97, N-[3-[2,5-difluoro-4-[[(3S,6R)-3-methyl-1,1-dioxo-6-phenyl-thiazinan-2-yl]methyl]phenyl]oxetan-3-yl]isoxazole-3-carboxamide]
14 | 7.8 nM | C[C@H]1CC[C@H](c2ccccc2)S(=O)(=O)N1Cc1cc(F)c([C@]2(c3nnc[nH]3)C[C@@H](O)C2)cc1F [Example 115, 3-[2,5-difluoro-4-[[(3S,6R)-3-methyl-1,1-dioxo-6-phenyl-thiazinan-2-yl]methyl]phenyl]-3-(4H-1,2,4-triazol-3-yl)cyclobutanol]
15 | 8 nM | C[C@H]1CC[C@H](c2ccccc2)S(=O)(=O)N1Cc1cc(F)c(C2(NCc3ncnn3C)COC2)cc1F [Example 87, 3-[2,5-difluoro-4-[[(3S,6R)-3-methyl-1,1-dioxo-6-phenyl-thiazinan-2-yl]methyl]phenyl]-N-[(2-methyl-1,2,4-triazol-3-yl)methyl]oxetan-3-amine]
16 | 6.7 nM | C[C@H]1CC[C@H](c2ccccc2)S(=O)(=O)N1Cc1ccc(C2(NCc3cc[nH]n3)CCOCC2)cc1F [Example 63, 4-[3-fluoro-4-[[(3S,6R)-3-methyl-1,1-dioxo-6-phenyl-thiazinan-2-yl]methyl]phenyl]-N-(1H-pyrazol-3-ylmethyl)tetrahydropyran-4-amine]
17 | 41.8 nM | Cc1nnc(NCC2(c3ccc(CN4[C@@H](C)CC[C@H](c5ccccc5)S4(=O)=O)c(F)c3)CCOCC2)o1 [Example 41, N-[[4-[3-fluoro-4-[[(3S,6R)-3-methyl-1,1-dioxo-6-phenyl-thiazinan-2-yl]methyl]phenyl]tetrahydropyran-4-yl]methyl]-5-methyl-1,3,4-oxadiazol-2-amine]
18 | 142 nM | Cc1nnc(C2(c3ccc(CN4[C@@H](C)CC[C@H](c5ccccc5)S4(=O)=O)c(F)c3)CCOCC2)o1 [Example 43, (3S,6R)-2-[[2-fluoro-4-[4-(5-methyl-1,3,4-oxadiazol-2-yl)tetrahydropyran-4-yl]phenyl]methyl]-3-methyl-6-phenyl-thiazinane 1,1-dioxide]
19 | 26.6 nM | C[C@H]1CC[C@H](c2ccccc2)S(=O)(=O)N1Cc1ccc(C2(c3nnc[nH]3)CCOCC2)cc1F [Example 46, (3S,6R)-2-[[2-fluoro-4-[4-(4H-1,2,4-triazol-3-yl)tetrahydropyran-4-yl]phenyl]methyl]-3-methyl-6-phenyl-thiazinane 1,1-dioxide]
20 | 3.7 nM | C[C@H]1CC[C@H](c2ccccc2)S(=O)(=O)N1Cc1cc(F)c(C2(NCc3ncco3)CCOCC2)cc1F [Example 83, 4-[2,5-difluoro-4-[[(3S,6R)-3-methyl-1,1-dioxo-6-phenyl-thiazinan-2-yl]methyl]phenyl]-N-(oxazol-2-ylmethyl)tetrahydropyran-4-amine]
21 | 10 nM | C[C@H]1CC[C@H](c2ccccc2)S(=O)(=O)N1Cc1cc(F)c(C2(C(=O)n3ccc(N)n3)CCOCC2)cc1F [Example 35, (3-aminopyrazol-1-yl)-[4-[2,5-difluoro-4-[[(3S,6R)-3-methyl-1,1-dioxo-6-phenyl-thiazinan-2-yl]methyl]phenyl]tetrahydropyran-4-yl]methanone]
22 | 28.6 nM | C[C@H]1CC[C@H](c2ccccc2)S(=O)(=O)N1Cc1cc(F)c(C2(c3nnc[nH]3)CCOCC2)cc1F [Example 50, (3S,6R)-2-[[2,5-difluoro-4-[4-(4H-1,2,4-triazol-3-yl)tetrahydropyran-4-yl]phenyl]methyl]-3-methyl-6-phenyl-thiazinane 1,1-dioxide]
23 | 10.6 nM | C[C@H]1CC[C@H](c2ccccc2)S(=O)(=O)N1Cc1ccc(C2(NCc3cc[nH]c(=O)c3)CCOCC2)cc1F [Example 72, 4-[[[4-[3-fluoro-4-[[(3S,6R)-3-methyl-1,1-dioxo-6-phenyl-thiazinan-2-yl]methyl]phenyl]tetrahydropyran-4-yl]amino]methyl]-1H-pyridin-2-one]
24 | 6.4 nM | C[C@H]1CC[C@H](c2ccccc2)S(=O)(=O)N1Cc1cc(F)c(C2(NCc3cocn3)CCOCC2)cc1F [Example 75, 4-[2,5-difluoro-4-[[(3S,6R)-3-methyl-1,1-dioxo-6-phenyl-thiazinan-2-yl]methyl]phenyl]-N-(oxazol-4-ylmethyl)tetrahydropyran-4-amine]
25 | 101 nM | C[C@H]1CC[C@H](c2ccccc2)S(=O)(=O)N1Cc1ccc(C2(C(=O)NC3CCOC3)CCOCC2)cc1F (stereo partly drawn) [Example 8, 4-[3-fluoro-4-[[(3S,6R)-3-methyl-1,1-dioxo-6-phenyl-thiazinan-2-yl]methyl]phenyl]-N-tetrahydrofuran-3-yl-tetrahydropyran-4-carboxamide]
26 | 7.2 nM | C[C@H]1CC[C@H](c2ccccc2)S(=O)(=O)N1Cc1ccc(C2(OCc3nnc[nH]3)CCOCC2)cc1F [Example 56, (3S,6R)-2-[[2-fluoro-4-[4-(4H-1,2,4-triazol-3-ylmethoxy)tetrahydropyran-4-yl]phenyl]methyl]-3-methyl-6-phenyl-thiazinane 1,1-dioxide]
